Reference: patent US11654161B2, “Compositions and methods for neuralgenesis” (priority 2016, dated 2023)

What was measured:
Down's syndrome model = assay: Down's syndrome BMPS exposed to compounds that induce oxidative stress, compared to healthy donor model; details: Down's syndrome iPSC-derived model
Description: FIG. 5A depicts morphological characterization with immunostaining of neurons (MAP2, Syn1, TH, SYP), neural precursor cells (nestin) and glial cells (GFAP) at 8 weeks of differentiation.

T-box brain 1 (TBR1) = assay: Real time RT-PCR of BMPS after toxicant exposure: TBR1; type: cell-based, human; details: for reduction of TBR1 gene expression: 24 hours exposure, sub-cytotoxic concentrations; for TBR1 gene expression: non-cytotoxic concentrations
Experimental: (§1) Total RNA was extracted from aggregates every week up to 8 weeks of differentiation using Tripure (Roche, Switzerland) according to Chomczynski and Sacchi (1987). The same RNA extraction method was used to isolate RNA after toxicant treatment. RNA quantity and purity was determined using NanoDrop 2000c (Thermo Scientific). One microgram of RNA was reverse-transcribed using the M-MI V Promega Reverse Transcriptase (Promega) according to the manufacturer's recommendations. For miRNA reverse-transcription 60 ng of RNA were reverse transcribed using TaqMan microRNA Reverse transcription kit in combination with miRNA specific stem-loop primers, which are a part of TaqMAn microRNA expression assay. Upto eight stem-loop primers were multiplexed in one reaction.
(§2) The expression of genes was evaluated using specific Taqman® gene expression assays (Life Technologies). miRNA expression was analyzed using TaqMAn microRNA expression assay in combination with TaqMan miRNA Reverse Transcription kit using protocol described in [77]. […] Real time RT-PCRs were performed using a 7500 Fast Real Time system machine (Applied Biosystems). Fold changes were calculated using the 2(−ΔΔCt) method. β-actin and 18s were used as a housekeeping genes for mRNA and RNU44 for miRNA. There were no statistically significant differences in expression for β-actin, 18s, and RNU44. Data were presented as mean±SD, normalized to housekeeping genes and week 0.

NDUFB1, ATP5C1, ATP50 = assay: Real time RT-PCR of BMPS after toxicant exposure: mitochondrial function genes; type: cell-based, human; details: for Expression of genes related to mitochondrial function (NDUFB1, ATP5C1, ATP50): 24 hours exposure, 5 μM rotenone, 1000 μM MPP+; for Mitochondrial function genes (NDUFB1, ATP5C1, ATP50), MPP+ versus rotenone: BMPS treated with MPP+ or rotenone
Experimental: as §1, §2

[1] = tested on: Reactive oxygen species (ROS); assay: OxiSelect In Vitro ROS/RNS Assay in cellular medium of BMPS; type: cell-based, human; details: 5 μM rotenone, 1000 μM MPP+
Description: This is a fluorescence-based assay measuring the presence of total free radicals within a sample and was used according to the manufacturer's protocol. The quenched fluorogenic dye dichlorodihydrofluorescin-DiOxyQ (DCFH-DiOxyQ) which is similar to the popular 2′,7′-dichlorodihydrofluorescein diacetate (DCFH-DA) is first primed with a quench removal reagent. The resulted highly reactive non-fluorescent DCFH can react with present ROS species in the cell supernatant and is then oxidized to the highly fluorescent DCF (2′,7′-dichlorodihydroxyfluorescein). At every time point, 50 μl of the cell supernatant was added to a 96-well plate in triplicates and was mixed and incubated with the DCFH-DiOxyQ for 45 minutes. The fluorescence intensity was measured with a fluorescence microplate reader at 480 nm/530 nm (excitation/emission) and was proportional to the total ROS/RNS levels within the sample.

dopaminergic neurons = details: for Alterations in other neurofilament 200-positive neurons: cytotoxic concentrations: 10 μM rotenone; for General cytotoxicity and effect on other neuronal types at higher concentrations: up to 50 μM rotenone, up to 5000 μM MPP+
Experimental: Initially, cytotoxicity experiments were performed to estimate sub-cytotoxic concentrations of these two compounds affecting only dopaminergic neurons (FIGS. 4A and 4C). […] Reactive oxygen species (ROS) were measured in the cellular medium using the OxiSelect™ In Vitro ROS/RNS Assay Kit (Cellbiolabs, San Diego, Calif.) as an indication of oxidative stress. […] Real time RT-PCR was performed in order to determine effects of both chemicals on genes related to PD, mitochondrial dysfunction and oxidative stress.
BMPS aggregates were collected at 2, 4 and 8 weeks. BMPS were fixed in 4% paraformaldehyde for 1 hour, washed 3 times in PBS, then incubated for 1 hour in blocking solution consisting of 5% normal goat serum (NGS) in PBS with 0.4% TritonX (Sigma). BMPS were then incubated at 4° C. for 48 hours with a combination of primary antibodies (Table 2) diluted in PBS containing 3% NGS and 0.1% TritonX. BMPS were washed in PBS 3 times after which they were incubated with the appropriate fluorophore-tagged secondary antibody for 1 hour in PBS with 3% NGS at room temperature. Double immunostaining was visualized using the proper combination of secondary antibodies (e.g., goat anti-rabbit secondary antibody conjugated with Alexa 594 and goat anti-mouse secondary antibody conjugated with Alexa 488 (Molecular Probes). Nuclei were counterstained with DRAQ5 dye (Cell Signaling; 1:5000 in 1×PBS) or NucRed Live (Molecular Probes) for 15 minutes before mounted on slides with coverslips and Prolong Gold antifade reagent (Molecular Probes); BMPS used as negative controls for immunostaining were processed omitting the primary antibody. Images were taken using a Zeiss UV-LSM 510 confocal microscope. The experiments were performed in duplicates; at least three different fields of view were analyzed for each combination of antibodies. 3D reconstruction was done using Imaris 7.6.4 software for scientific imaging.

Alpha-synuclein (SNCA) = assay: Real time RT-PCR of BMPS after toxicant exposure: SNCA; type: cell-based, human; details: for reduction of SNCA gene expression: 24 hours exposure, sub-cytotoxic concentrations
Experimental: as §1, §2

BMPS = assay: Resazurin reduction cytotoxicity assay of BMPS after rotenone and MPP+ treatment; type: cell-based, human; details: 24 h exposure
Experimental: DMSO was used as vehicle control. MPP+ working solutions were prepared in differentiation medium from 30 mM stocks to reach final concentrations of 10, 50, 100, 500, 1,000, 5,000 and 10,000 μM. Four independent experiments in 3 replicates were performed for each experimental condition (control and toxicant exposure for the different time points). […] Resazurin (7-Hydroxy-3H-phenoxazin-3-one 10-oxide) is a blue dye that is reduced into red fluorescent resorufin by redox reactions in viable cells. 100 μl Resazurin (2 mg/ml stock) were added directly to the 6 well plates (2 ml/well). Plates were incubated for 3 h at 37° C., 5% CO2. Subsequently, 50 μl of medium were transferred from each well in triplicates to a 96-well plate and fluorescence was measured at 530 nm/590 nm (excitation/emission) using a multi-well fluorometric reader CytoFluor series 4000 (PerSeptive Biosystems, Inc). Data were presented as mean±SD. Statistical analysis was performed using Dunnett's test.

[2] = tested on: Tyrosine hydroxylase (TH) mRNA; assay: Real time RT-PCR of BMPS after toxicant exposure: TH; type: cell-based, human; details: for TH mRNA expression decreased by: 24 hours, 5 μM rotenone, 1000 E M MPP+; for TH gene expression compared to controls: BMPS treated with rotenone or MPP+
Experimental: as §1, §2

[3] = tested on: PD-related genes (TH, TBR1, SNCA, KEAP1, NDUFB1, ATP5C1, ATP50 and CASP1); assay: Real time RT-PCR of BMPS after toxicant exposure: PD-related gene panel; type: cell-based, human; details: 5 μM rotenone, 1 mM MPP+
Description: Induced pluripotent stem cells (iPSC)-derived human-relevant microphysiological systems (MPS) better mimic the organ level, but are too complex for chemical and drug screening. As described herein, a reproducible 3D brain MPS (BMPS) that differentiates into mature neurons and glial cells (astrocytes and oligodendrocytes), which reproduces the topology of neuronal-glial interactions and connectivity in the central nervous system was developed. […]
(§3) Total RNA was extracted from aggregates every week up to 8 weeks of differentiation using Tripure (Roche, Switzerland) according to Chomczynski and Sacchi (1987). […] RNA quantity and purity was determined using NanoDrop 2000c (Thermo Scientific). […]
(§4) The expression of genes was evaluated using specific Taqman® gene expression assays (Life Technologies). miRNA expression was analyzed using TaqMAn microRNA expression assay in combination with TaqMan miRNA Reverse Transcription kit using protocol described in [77]. […] Fold changes were calculated using the 2(−ΔΔCt) method. β-actin and 18s were used as a housekeeping genes for mRNA and RNU44 for miRNA. […]

Caspase-1 (CASP1) = assay: Real time RT-PCR of BMPS after toxicant exposure: Caspase-1; type: cell-based, human
Experimental: as §1
as §2, with “Data were presented as mean±SD, normalized to housekeeping genes and week 0.” left out

KEAP1 = assay: Real time RT-PCR of BMPS after toxicant exposure: KEAP1; type: cell-based, human; details: 24 h exposure to 1 mM MPP+
Description: In one embodiment, the model described herein is useful for studying Parkinson's disease (PD). Traditionally, PD has been described as a pre-synaptic degenerative process that affects dopaminergic neurons and induces a fundamental motor disorder, however, non-motor symptoms can also be present. Research in Parkinson's disease is experiencing an upswing at the moment, owing to a lack of curative drugs for the large number of patients. […] These model toxins are mainly used in mice and primates (and less in cell cultures) to model a disease state resembling PD. Human neurons, which would be most relevant, are not usually available and existing cell lines are only very poor substitutes. […]
as §3, §4

SMILES	reduction of TBR1 gene expression (T-box brain 1 (TBR1)) [%]	TBR1 gene expression (T-box brain 1 (TBR1))	Expression of genes related to mitochondrial function (NDUFB1, ATP5C1, ATP50) (NDUFB1, ATP5C1, ATP50)	Mitochondrial function genes (NDUFB1, ATP5C1, ATP50), MPP+ versus rotenone (NDUFB1, ATP5C1, ATP50)	ROS production ([1]; 12 hours exposure)	ROS production ([1]; 24 hours exposure)	Alterations in other neurofilament 200-positive neurons (dopaminergic neurons; 1000 μM MPP+)	General cytotoxicity and effect on other neuronal types at higher concentrations (dopaminergic neurons)	reduction of SNCA gene expression (Alpha-synuclein (SNCA)) [%]	cytotoxic concentrations (BMPS) [µM]	TH mRNA expression decreased by [2]	TH gene expression compared to controls [2]	Expression of PD-related genes [3]	also measured
C[n+]1ccc(-c2cc[n+](C)cc2)cc1 [paraquat]														Response of Down's syndrome model compared to model from healthy donors (Down's syndrome model): more sensitive to these compounds than the healthy model
C=C(C)[C@H]1Cc2c(ccc3c2O[C@@H]2COc4cc(OC)c(OC)cc4[C@@H]2C3=O)O1 [rotenone]	70±13	down-regulated	tended to decrease in expression but these changes were not statistically significant	down-regulated	no statistically significant changes	increase in ROS production	did not show any alterations in other neurofilament 200-positive neurons	led to general cytotoxicity and affected also other neuronal types stained positive for neurofilament 200	72±6	10	84%±11	decreased TH gene expression compared to controls	altered expression of PD-related genes	SNCA gene expression (Alpha-synuclein (SNCA); 5 μM rotenone, 1 mM MPP+): Reduction of SNCA
C[n+]1ccc(-c2ccccc2)cc1 [MPP+, 1-methyl-4-phenylpyridinium]	76±22	down-regulated	tended to decrease in expression but these changes were not statistically significant	down-regulated, more strongly	no statistically significant changes	increase in ROS production	did not show any alterations in other neurofilament 200-positive neurons	led to general cytotoxicity and affected also other neuronal types stained positive for neurofilament 200	41±40	1000	70%±9	decreased TH gene expression compared to controls	altered expression of PD-related genes	Caspase-1 (CASP1) expression (Caspase-1 (CASP1); 24 h exposure to 1 NM MPP+): increased significantly; Caspase-1 gene expression (Caspase-1 (CASP1); 24 hours exposure to MPP+): increased; Disruption of dopaminergic neurons observed by immunohistochemistry (dopaminergic neurons; 5 μM rotenone, 100 μM MPP+): disrupted dopaminergic neurons; Dopaminergic effects at concentrations selected for further studies (dopaminergic neurons; 5 μM rotenone, 1000 μM MPP+): induced clear and selective dopaminergic effects; Selective disruption of dopaminergic neurons but not of any other cell types (immunohistochemistry) (dopaminergic neurons; 24 h, 1p M rotenone, 100 μM MPP+, BMPS differentiated 4 weeks): Selective disruption of dopaminergic neurons but not of any other cell types; Degeneration of dopaminergic neurons (dopaminergic neurons; treatment of BMPS (FIGS. 4E and 4F)): induced specific degeneration of dopaminergic neurons; Statistical significance of change in SNCA expression (Alpha-synuclein (SNCA); BMPS exposed to 1 mM MPP+): no statistically significant changes in SNCA expression; KEAP1 expression (oxidative stress marker) (KEAP1): increase in KEAP1 expression
